Values of other authors in patent publication US5891465A, “Delivery of biologically active material in a liposomal formulation for administration into the mouth” (BioZone Laboratories, Inc., priority 1996, dated 1999).

Experiments:
[1] = tablet for absorption through the buccal mucosa
[2] = tablets under the tongue

| Structure (SMILES) | androgenic activity relative to oral tablets [1] | onset [2] |
| --- | --- | --- |
| C[C@]12CCC(=O)C=C1CC[C@@H]1[C@@H]2CC[C@@]2(C)[C@H]1CC[C@]2(C)O [methyltestosterone] | twice the androgenic activity | – |
| O=[N+]([O-])OCC(CO[N+](=O)[O-])O[N+](=O)[O-] [nitroglycerin] | – | rapid onset |
